Values of other authors, collected in patent US20090215137A1, “METHODS FOR THE ECONOMICAL PRODUCTION OF BIOFUEL PRECURSOR THAT IS ALSO A BIOFUEL FROM BIOMASS” (GEVO, INC., priority 2007, published 2009).
Values after ≈ are worked out from the molar mass of the structure shown. Like-named read-outs stand apart in the source and are kept apart here.

Experiments:
[1] = octanol:water
[2] = test system: Klyveromyces marxianus; settings: in binary combination

## CCCCCCCCO [Biocatalyst 1-octanol, 1-octanol]
other
  Solubility in water (20° C., unless noted): 300 µg/mL (≈ 2300 µM)
two-phase system (Chen, Q. 1995)
  solubility limit: < 1100 µg/mL
[1]
  log P: 3

## CC(C)O [Biocatalyst 2-propanol, 2-propanol]
In words
  Solubility in water (20° C., unless noted): miscible

## CCC(C)O (stereo not drawn) [Biocatalyst 2-butanol, 2-butanol]
[1]
  log P: 0.6

## COc1cc(C=O)ccc1O [Vanillin, vanillin]
[2]
  reduction in both cell growth and fermentation: 90%
